Results published in the supplement of paper PMC11451515.

System: P12-Ichikawa
Assay: cell viability relative to DMSO control; higher = less cytotoxic
Conditions: 48 h
Method in brief: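 Leukemia cells (NOMO1 or SEM, 500 cells/well; P12-Ichikawa, 1000 cells/well) were seeded in 5 μl in 1536-well plates after at least four passages of adaptation to each medium. They received library compounds in DMSO by pin dosing, 11 threefold points from 47 μM to 0.79 nM. Luminescence with CellTiter-Glo One was read after 48 h at 37°C. Viability is stated per plate relative to DMSO wells, with cell-free wells as background.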

[1] = HPLM + 10% dialyzed FBS, 0.000781 µM
[2] = HPLM + 10% dialyzed FBS, 0.00234 µM
[3] = HPLM + 10% dialyzed FBS, 0.00702 µM
[4] = HPLM + 10% dialyzed FBS, 0.0211 µM
[5] = HPLM + 10% dialyzed FBS, 0.0632 µM
[6] = HPLM + 10% dialyzed FBS, 0.19 µM
[7] = HPLM + 10% dialyzed FBS, 0.569 µM
[8] = HPLM + 10% dialyzed FBS, 1.71 µM
[9] = HPLM + 10% dialyzed FBS, 5.12 µM
[10] = HPLM + 10% dialyzed FBS, 15.4 µM
[11] = HPLM + 10% dialyzed FBS, 46.1 µM
[12] = RPMI 5 mM glucose + 10% FBS, 0.000781 µM
[13] = RPMI 5 mM glucose + 10% FBS, 0.00234 µM
[14] = RPMI 5 mM glucose + 10% FBS, 0.00702 µM
[15] = RPMI 5 mM glucose + 10% FBS, 0.0211 µM
[16] = RPMI 5 mM glucose + 10% FBS, 0.0632 µM
[17] = RPMI 5 mM glucose + 10% FBS, 0.19 µM
[18] = RPMI 5 mM glucose + 10% FBS, 0.569 µM
[19] = RPMI 5 mM glucose + 10% FBS, 1.71 µM
[20] = RPMI 5 mM glucose + 10% FBS, 5.12 µM
[21] = RPMI 5 mM glucose + 10% FBS, 15.4 µM
[22] = RPMI 5 mM glucose + 10% FBS, 46.1 µM
[23] = RPMI 5 mM glucose + 10% dialyzed FBS, 0.000781 µM
[24] = RPMI 5 mM glucose + 10% dialyzed FBS, 0.00234 µM
[25] = RPMI 5 mM glucose + 10% dialyzed FBS, 0.00702 µM
[26] = RPMI 5 mM glucose + 10% dialyzed FBS, 0.0211 µM
[27] = RPMI 5 mM glucose + 10% dialyzed FBS, 0.0632 µM
[28] = RPMI 5 mM glucose + 10% dialyzed FBS, 0.19 µM
[29] = RPMI 5 mM glucose + 10% dialyzed FBS, 0.569 µM
[30] = RPMI 5 mM glucose + 10% dialyzed FBS, 1.71 µM
[31] = RPMI 5 mM glucose + 10% dialyzed FBS, 5.12 µM
[32] = RPMI 5 mM glucose + 10% dialyzed FBS, 15.4 µM
[33] = RPMI 5 mM glucose + 10% dialyzed FBS, 46.1 µM

Compound	cell viability [1] [%]	cell viability [2] [%]	cell viability [3] [%]	cell viability [4] [%]	cell viability [5] [%]	cell viability [6] [%]	cell viability [7] [%]	cell viability [8] [%]	cell viability [9] [%]	cell viability [10] [%]	cell viability [11] [%]	cell viability [12] [%]	cell viability [13] [%]	cell viability [14] [%]	cell viability [15] [%]	cell viability [16] [%]	cell viability [17] [%]	cell viability [18] [%]	cell viability [19] [%]	cell viability [20] [%]	cell viability [21] [%]	cell viability [22] [%]	cell viability [23] [%]	cell viability [24] [%]	cell viability [25] [%]	cell viability [26] [%]	cell viability [27] [%]	cell viability [28] [%]	cell viability [29] [%]	cell viability [30] [%]	cell viability [31] [%]	cell viability [32] [%]	cell viability [33] [%]
CN1CCN(CC1)C2=CC3=C([NH]C(=N3)C/4=C(\N)C5=C(F)C=CC=C5NC4=O)C=C2	103	106	109	99.2	88.7	99.7	96.3	95	73	65.5	37	107	103	111	112	88.8	104	91.9	89.2	60.2	45.2	30.4	112	112	106	107	102	107	97.8	91.3	67.1	46.3	29.4
COc1cc(N2CCN(C)CC2)ccc1Nc1nc(N)c(C(=O)c2c(Cl)cccc2Cl)s1	111	118	106	113	111	108	112	103	105	96.2	50.2	119	117	125	110	114	111	115	105	101	99.5	50.5	120	120	131	117	112	117	119	114	115	101	54.3
COc1cccc(N(C)C(=S)Oc2ccc3c(c2)CCCC3)n1	97.6	97.3	103	106	111	108	112	107	97.6	107	101	96.6	103	99.1	103	104	92.2	107	104	96.9	95.6	88.1	94.9	86.6	104	96.9	99.7	94.2	101	92.1	96.6	94.8	81.1
CC[C@H]1OC(=O)[C@H](C)[C@@H](O[C@H]2C[C@@](C)(OC)[C@@H](O)[C@H](C)O2)[C@H](C)[C@@H](O[C@@H]2O[C@H](C)C[C@H](N(C)C)[C@H]2O)[C@](C)(O)C[C@@H](C)/C(=N\OCOCCOC)[C@H](C)[C@@H](O)[C@]1(C)O	92.4	96.1	93.5	90.4	102	87.8	87.3	82.9	86.4	76.9	77.3	81.3	85	84.9	88.3	94.3	76.8	72.4	73.1	82.3	82.4	79.6	89.2	90.1	90.2	91.6	112	72	61.3	85.2	81.9	71.5	94.3
CC(C)[C@H](O)C(=O)N[C@@H](C)C(=O)N[C@@H]1C(=O)N(C)CCc2ccccc21	112	114	111	112	115	108	102	90.7	110	91.4	90.7	114	123	122	109	119	116	104	113	106	97.7	105	116	113	113	105	96.6	106	102	99.6	94.6	98.8	92.7
COc1ccc(-n2c(C)c([N+](=O)[O-])c3ccc(O)cc32)cc1	–	–	–	–	–	–	–	–	–	–	–	127	118	118	126	118	123	122	121	115	111	105	119	121	120	122	114	118	121	122	106	112	102
O=C(CCCN1CCC(O)(c2ccc(Cl)cc2)CC1)c1ccc(F)cc1	105	107	109	116	119	123	111	111	119	127	107	106	112	111	124	124	132	116	126	124	131	95.9	108	114	117	111	116	131	115	115	119	112	99.8
CC(C)[C@H]1C(=O)N[C@H](CO)Cc2c[nH]c3cccc(c23)N1C	87.3	96	98.3	108	110	99.2	92.2	88.1	74.2	83.9	88.8	91.5	98.8	104	105	110	98.9	76.9	75.4	63.7	65.4	74.5	87	99.7	97.9	101	107	90.3	79.1	70.6	58	64.5	65.3
C#CCC(Cc1cnc2nc(N)nc(N)c2n1)c1ccc(C(=O)N[C@@H](CCC(=O)O)C(=O)O)cc1 (stereo not given in full)	–	–	–	–	–	–	–	–	–	–	–	125	119	128	128	44.8	47.4	29.9	27.4	23.9	29	30.8	120	110	115	125	37.1	25.6	20.2	19.9	17.2	20.3	19
Cn1cnc(N)c2ncnc1-2	110	116	125	127	115	116	124	110	88.5	5.12	4.04	97.1	119	114	117	121	114	126	113	83.6	6.1	3.21	97.9	109	117	128	123	130	124	113	91.9	7.88	3.87
Nc1ncnc2nc(-c3ccc(N4CCOCC4)nc3)cc(-c3cccc(Br)c3)c12	116	128	117	122	117	117	115	119	111	108	113	–	–	–	–	–	–	–	–	–	–	–	114	121	112	121	118	121	129	115	115	108	112
CC(O)(C[S+](=O)([O-])c1ccc(F)cc1)C(=O)Nc1ccc(C#N)c(C(F)(F)F)c1 (stereo not given)	94.8	85.9	97.2	96.8	93.7	100	102	101	95.6	102	69.9	84.6	92.9	92.3	93.9	94.5	91.1	93.2	98.9	90.3	88.9	52.7	78.3	85.5	90.9	90.3	95.9	86.2	98.2	96.2	90.4	74	49.4
COC(=O)CCC1=C(C)C2=CC3=NC(=CC4=C(C)C(=C([NH]4)C=C\5N=C(C=C1[NH]2)\C(=C5C)CCC(O)=O)C=C)\C6=C\C=C(/[C@@H](C(=O)OC)[C@@]36C)C(=O)OC	98.8	103	101	111	102	105	109	106	101	98.7	93.3	93.3	101	104	100	97.1	100	103	96.8	88.9	77.1	60.9	88	94.7	97.8	95.6	103	96.9	105	104	94.6	84.9	82.9
c1coc(CNc2ncnc3nc[nH]c23)c1	–	–	–	–	–	–	–	–	–	–	–	–	–	–	–	–	–	–	–	–	–	–	123	132	116	122	131	131	130	127	122	115	105
O=C(O)c1cccnc1	107	107	115	114	106	107	106	96.1	68.9	47.1	35.8	113	112	126	113	118	119	117	110	99.7	55.8	30.9	110	112	106	108	108	102	105	98.2	76.5	33.4	9.03
